This note sets out measurements from EPA's ToxRefDB 2.

The test system of data set [1] is rat. To be noted: Subchronic oral toxicity in rodents, other, Feed, dose end: 13 week, group: systemic.
Data set [2] relates to mouse. To be noted: Subchronic dermal toxicity, cd1, Topical, dose end: 49 day, group: systemic.
The test system of data set [3] is rat. To be noted: Subchronic oral toxicity in rodents, sprague dawley, Gavage/Intubation, dose end: 13 week, group: systemic.
The subject of data set [4] is rat. Conditions: Prenatal developmental toxicity study, sprague dawley, Dermal, Topical, dose end: 15 GD, group: maternal.
The test system of data set [5] is mouse. To be noted: Subchronic oral toxicity in rodents, b6c3f1, Water, dose end: 13 week.
Data set [6] concerns rat. Conditions: Prenatal developmental toxicity study, sprague dawley, Oral, Gavage/Intubation, dose end: 15 GD.
The test system of data set [7] is rat. To be noted: Subchronic oral toxicity in rodents, fischer, Water, dose end: 14 week, group: systemic.
The test system of data set [8] is mouse. To be noted: Sub-acute repeat dose toxicity, b6c3f1, Oral, Water, dose end: 14 day, group: systemic.
Data set [9] relates to rat. To be noted: Sub-acute repeat dose toxicity, fischer, Oral, Water, dose end: 14 day, group: systemic.
For data set [10], the system named is mouse. To be noted: Combined chronic toxicity/carcinogenicity; b6c3f1; Oral; Water; dose end: 105 week; group: systemic; systemic / in life observation / body weight / body weight.
In data set [11] the test system is rat. Conditions: Combined chronic toxicity/carcinogenicity, fischer, Oral, Water, dose end: 105 week, group: systemic.
Where [12] appears, read: systemic / hematology / erythrocyte (rbc) count differential / erythrocyte (rbc) + systemic / in life observation / body weight / body ….
The mark [13] stands for this setting: systemic / urinalysis / ketones / ketones.
[14] abbreviates: systemic / in life observation / clinical signs / erythema + systemic / pathology microscopic / skin / edema.
Setting [15] is: systemic / in life observation / clinical signs / erythema + systemic / pathology microscopic / skin / edema + systemic / in life ….
The mark [16] stands for this setting: systemic / organ weight / kidney / relative to body weight + systemic / organ weight / liver / absolute + systemic / organ weight / liver / ….
[17] abbreviates: systemic / in life observation / body weight / body weight + systemic / in life observation / clinical signs / [other] + systemic / in life ….
[18] abbreviates: systemic / in life observation / body weight / body weight + systemic / in life observation / clinical signs / red or crusty deposits around….
Setting [19] is: group: maternal, reproductive / reproductive performance / estrous cycle / length.
Where [20] appears, read: group: systemic, systemic / in life observation / clinical signs / dehydration + systemic / in life observation / clinical signs / feces, discoloration + ….
[21] abbreviates: group: systemic, systemic / in life observation / water consumption / water consumption.
[22] abbreviates: group: developmental, systemic / in life observation / body weight / fetal weight.
Where [23] appears, read: group: maternal, systemic / in life observation / clinical signs / ataxia + systemic / in life observation / clinical signs / lethargy + systemic / in life ….
Where [24] appears, read: systemic / clinical chemistry / bile acids / bile acids + systemic / in life observation / body weight / body weight + systemic / in life ….
[25] abbreviates: systemic / in life observation / body weight / body weight + systemic / in life observation / body weight / body weight gain + systemic / ….
[26] abbreviates: systemic / in life observation / body weight / body weight gain + systemic / organ weight / liver / absolute + systemic / organ weight / ….
The mark [27] stands for this setting: systemic / pathology microscopic / kidney / hyperplasia + systemic / pathology microscopic / kidney / nephropathy + systemic / in life ….

Bounds are passed on as bounds.

Take `CC(=O)CCc1ccc(O)cc1` [4-(4-Hydroxyphenyl)butan-2-one]: in data set [1] (setting [12]), the lowest-observed-adverse-effect level (LOAEL) was more than 678 mg/kg/day and the no observed adverse effect level (NOAEL) was not below 678 mg/kg/day. In data set [1] (setting [13]), this compound yielded an LEL of 65 mg/kg/day and an NEL of less than 65 mg/kg/day.
Consider `Cc1cc(O)cc(C)c1Cl` [4-Chloro-3,5-dimethylphenol], for which the figures for the LOAEL in data set [2] (setting [14]) and in data set [3] (setting [16]) were 213 mg/kg/day and 2500 mg/kg/day, respectively. Besides, the NOAEL in data set [2] (setting [14]) was less than 213 mg/kg/day; in data set [3] (setting [16]) it was 1250 mg/kg/day. For the same compound, the values for the LEL in data set [2] (setting [15]) and in data set [3] (systemic / in life observation / body weight / body weight gain + systemic / in life observation / clinical signs / salivation + systemic / …) were 213 mg/kg/day and 1250 mg/kg/day, respectively. Also, the NEL is less than 213 mg/kg/day in data set [2] (setting [15]) and 25 mg/kg/day in data set [3] (systemic / in life observation / clinical signs / salivation).
With `c1ccc2c(c1)Oc1ccccc1[As]2O[As]1c2ccccc2Oc2ccccc21` [10,10'-Oxybisphenoxarsine], in data set [4] (setting [17]), the lowest-observed-adverse-effect level (LOAEL) is more than 30 mg/kg/day and the no observed adverse effect level (NOAEL) was not below 30 mg/kg/day. Moreover, in [4] (setting [18]), the LEL came to 0.3 mg/kg/day and the NEL was less than 0.3 mg/kg/day.
As to `CC(CO)OC(C)CO.CC(O)COCC(C)O` (configuration not stated) [Dipropylene glycol], the LEL in data set [5] (setting [19]) is 14700 mg/kg/day; in [5] (setting [21]), 715 mg/kg/day; in data set [6] (setting [22]), 5000 mg/kg/day; in data set [6] (setting [23]), 2000 mg/kg/day; in data set [7] (setting [24]), 425 mg/kg/day; in data set [8] (setting [26]) it was 10700 mg/kg/day. In addition, the LEL is 2650 mg/kg/day in data set [9] (systemic / organ weight / liver / absolute + systemic / organ weight / liver / relative to body weight), 1950 mg/kg/day in data set [10] and 470 mg/kg/day in data set [11] (systemic / pathology microscopic / kidney / hyperplasia + systemic / pathology microscopic / kidney / nephropathy + systemic / pathology …). Also, the LOAEL in [5] (setting [19]) was more than 14700 mg/kg/day; in data set [5] (setting [20]), more than 11000 mg/kg/day; in data set [6] (setting [22]), more than 5000 mg/kg/day; in data set [6] (setting [23]), more than 5000 mg/kg/day; in data set [7] (setting [25]) it was 8950 mg/kg/day; in [8] (systemic / in life observation / body weight / body weight gain) it was 10700 mg/kg/day. In addition, the lowest observed adverse effect level (LOAEL) in data set [9] (systemic / in life observation / body weight / body weight + systemic / in life observation / body weight / body weight gain) was found to be 11100 mg/kg/day; in data set [10], 1950 mg/kg/day; in data set [11] (systemic / pathology microscopic / kidney / hyperplasia + systemic / pathology microscopic / kidney / nephropathy) it was 470 mg/kg/day. Also, the NEL is 7430 mg/kg/day in [5] (setting [19]); less than 715 mg/kg/day in data set [5] (setting [21]); 2000 mg/kg/day in data set [6] (setting [22]); 800 mg/kg/day in data set [6] (setting [23]); less than 425 mg/kg/day in data set [7] (setting [24]); 5330 mg/kg/day in data set [8] (systemic / in life observation / clinical signs / abnormal gait + systemic / in life observation / clinical signs / emaciation + systemic / …). For the same compound, the NEL in data set [9] (systemic / organ weight / liver / absolute + systemic / organ weight / liver / relative to body weight + systemic / in life observation / …) came out at 1450 mg/kg/day; in [10] it was 1040 mg/kg/day; in data set [11] (setting [27]), 115 mg/kg/day. Besides, the NOAEL in data set [5] (setting [19]) was not below 14700 mg/kg/day; in [5] (setting [20]), not below 11000 mg/kg/day; in data set [6] (setting [22]), not below 5000 mg/kg/day; in [6] (setting [23]), not below 5000 mg/kg/day; in data set [7] (setting [25]), 3340 mg/kg/day; in data set [8] (setting [26]) it was 5330 mg/kg/day. The NOAEL in [9] (systemic / in life observation / body weight / body weight + systemic / in life observation / body weight / body weight gain + systemic / in…) was found to be 5420 mg/kg/day; in data set [10] it was 1040 mg/kg/day; in data set [11] (setting [27]), 115 mg/kg/day.

In general, LOAEL refers to the lowest tested level that showed an adverse finding. By NOAEL is commonly meant the highest dose or exposure tested at which no adverse effect was seen.
